One assay addresses T1, Hsc70 (Homo sapiens, UniProt P11142).
T1 construct: 6X His-tag (TEV-cleavable) (cleaved yes); made in house; host or cells: E. coli Rosetta (DE3)
The assay can be described thus: Methyl-TROSY NMR of Ile-13CH3-labeled Hsc70 with peptides. It is filed as binding. To be noted: Ile-13CH3 Hsc70 40 μM, 25 °C, 600 MHz, pD 7.4. The procedure: Figure 5 SNN and SNC peptides interact with the canonical substrate-binding site of Hsc70.A, ATPase activity of Hsc70 (2 μM) in the absence (gray) and presence of 200 μM SNNP (orange) and SNCP (green) peptides. Error bars represent the SDs from three independent experiments. B, binding of SNAP-25 (black), SNNP (orange), LoopP (blue), and SNCP (green) peptides to Hsc70 followed by competition for FITC-p5 peptide using fluorescence anisotropy. Increasing concentrations of the competitors were added to a complex of Hsc70 (5 μM) and FITC-p5 peptide (50 nM). Error bars represent SDs from three independent experiments. C, structure of the canonical substrate-binding site of human HspA1 (PDB 4po2) illustrating the location of Hsc70 residues Ile 403 and Ile 440 in red and green spheres, respectively (N.B., Hsc70 and HspA1 share […] sequence identity). The SBD is shown in gray, bound substrate in cyan sticks, and the side chain of the residue occupying the 0th position in the chaperone (“anchor residue”) in orange ball and sticks. For better visualization of the substrate-binding site, residues 512 to 613, 405 to 408, and 431 were removed in this illustration of the structure. D, the Ile region of the ^1H-^13 C HMQC spectra of Ile-^13CH3-labeled Hsc70 (40 μM) in the absence (black) and in the presence of unlabeled SNNP (orange) and SNCP (green) peptides (200 μM).
To directly observe binding of SNAP-25 peptides to Hsc70, we used methyl-TROSY NMR. We recorded the spectra of complexes between peptides containing the Hsc70 binding sites of SNAP-25 and Hsc70 selectively labeled (^1H,^13 C) at Ile δ1-methyl positions in a ^2H, ^12C background. We had previously found using the Escherichia coli Hsp70, DnaK, that the δ1-methyl chemical shifts of Ile 401 and 438, which contact the central residue of the bound peptide (anchor residue, Fig. 5C), change markedly depending on the identity of the bound anchor residue and the orientation of the peptide backbone with respect to DnaK ([38]). In Hsc70, the side chains of Ile 403 and 440 are similarly arranged with respect to the anchor residue of the bound peptide as Ile 401 and 438 are in DnaK (Fig. 5C) allowing us to use their δ1-methyl chemical shifts to assess directly how the chaperone binds to SNAP-25 peptides SNNP and SNCP. We confirmed the assignment of Ile 403 and Ile 440 chemical shifts by mutating these residues to Leu and collecting methyl-TROSY NMR spectra. The Hsp70 SBD site that binds the anchor residue (termed the 0th pocket) is most frequently occupied by Leu or Ile and less commonly by Val, Pro, or Met ([38], [39], [40], [41]). […]
NMR experiments were carried out at 25 °C on a 600 MHz Bruker Avance III spectrometer equipped with a CryoProbe. Data were processed with NMRPipe and analyzed using ccpNMR Analysis. […]

The subject of another assay is V438F Hsc70. The assay can be described thus: ATPase activity of V438F Hsc70. It counts as biochemical, human. To be noted: V438F Hsc70 2 μM, peptide 200 μM; binding site blocked; three independent experiments (Fig. S3). From the text:
Hsp70s consist of an nucleotide-binding domain (NBD) and a substrate-binding domain (SBD). Hsc70 works using an allosteric mechanism whereby substrate binding at the SBD stimulates the ATP hydrolysis rate at the nucleotide-binding domain. The basal ATPase rate of Hsp70 is low, usually about 0.05 ± 0.009 mol Pi/mol protein, and increases when it is stimulated by binding of a peptide to the canonical site in the SBD. We measured the ability of SNAP-25 peptides SNNP and SNCP to stimulate the ATPase rate of Hsc70 (Fig. 5A). SNNP and SNCP binding cause a 1.5-fold increase of the Hsc70 ATPase rate over basal (observed rates upon addition of SNNP and SNCP were 0.089 ± 0.008 and 0.080 ± 0.005, respectively). In order to confirm that peptides are indeed binding at the canonical binding site of Hsc70, we used the V438F mutant that blocks the binding site ([37]). […] The addition of CSPαJ stimulates the ATPase activity of Hsc70 ∼4-fold with and without peptides.
We performed ATPase assays to observe the activity of Hsc70 in the presence of SNAP25 peptides. Hsc70 (2 μM) and peptide (200 μM) were incubated in HMK buffer with 1 mM DTT for 15 min followed by addition of 1 mM ATP and incubation at 37 °C for 1 h. […] Absorbance readings were taken at 620 nm using a BioTek plate reader. […]

T1 sequence (P11142 whole entry): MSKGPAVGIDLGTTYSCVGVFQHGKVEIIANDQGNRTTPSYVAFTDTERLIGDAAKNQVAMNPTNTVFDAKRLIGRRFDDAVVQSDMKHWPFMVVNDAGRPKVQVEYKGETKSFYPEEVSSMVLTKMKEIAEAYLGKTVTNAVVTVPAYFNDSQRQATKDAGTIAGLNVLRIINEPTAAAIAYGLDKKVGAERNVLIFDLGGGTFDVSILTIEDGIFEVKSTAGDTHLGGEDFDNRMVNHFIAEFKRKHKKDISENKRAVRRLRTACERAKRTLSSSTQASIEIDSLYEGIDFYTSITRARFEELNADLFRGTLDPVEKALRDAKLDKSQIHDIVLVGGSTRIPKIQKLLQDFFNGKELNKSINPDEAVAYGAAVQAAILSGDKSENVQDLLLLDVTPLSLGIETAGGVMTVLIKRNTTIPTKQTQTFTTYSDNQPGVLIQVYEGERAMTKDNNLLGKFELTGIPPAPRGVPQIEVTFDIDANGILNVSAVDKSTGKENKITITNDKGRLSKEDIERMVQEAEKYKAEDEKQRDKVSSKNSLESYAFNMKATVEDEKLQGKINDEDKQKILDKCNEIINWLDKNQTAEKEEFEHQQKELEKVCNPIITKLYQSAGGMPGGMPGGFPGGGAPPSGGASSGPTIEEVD

Take “RRMLQLVEESK [SNNP, peptide … from the SNN domain of SNAP-25]”: at Hsc70, the “Ile 403 and 440 δ1-methyl signals on complex formation” value was “indeed shift upon complex formation”; the “Ile 440 and 403 δ1-methyl chemical shift splitting (binding modes)” value is on record as “split into two resonances each”. The “enhancement of V438F Hsc70 ATPase activity” value in the assay with V438F Hsc70 was “did not enhance its ATPase activity”.

For “EREQMAISGGFIRR [SNCP, peptide … from the LOOP-SNC domain of SNAP-25]”, at Hsc70, the “Ile 403 and 440 δ1-methyl signals on complex formation” value is listed as “indeed shift upon complex formation”; the “Ile 440 chemical shift splitting (binding modes)” value is on record as “split into two signals”. Besides, in the assay on V438F Hsc70, the “enhancement of V438F Hsc70 ATPase activity” value is listed as “did not enhance its ATPase activity”.

(Values after paper PMC11697113, “The Hsc70 system maintains the synaptic SNARE protein SNAP-25 in an assembly-competent state and delays its aggregation [drawing 1]” (The Journal of Biological Chemistry, 2024).)
